Experimental data as given in ChEMBL document CHEMBL4811263, “Tulipiferamide A, an Alkamide from Liriodendron tulipifera, Exhibits an Anti-Inflammatory Effect via Targeting IKKβ Phosphorylation” (J Nat Prod, 2021).

How the values were obtained:
RAW264.7 = assay: Antiinflammatory activity in mouse RAW264.7 assessed as inhibition of LPS-induced NO production preincubated for 30 mins followed by LPS stimulation measured after 24 hrs by Griess reagent based assay; format: functional, cell-based
[1] = Inhibition of LPS-indued NF-kappaB activation in mouse RAW264.7 cells preincubated for 30 mins followed by LPS stimulation and measured after 10 hrs by luciferase assay; format: cell-based

O=Cc1ccc(O)cc1 [4-HYDROXYBENZALDEHYDE]
IC50 (RAW264.7): > 50 µM

COc1c(OC)c2c3c(nccc3c1OC)C(=O)c1cc3c(cc1-2)OCO3 [OXOPHOEBINE]
IC50 (RAW264.7): 34.2 µM | IC50 [1]: 28.5 µM

C=C1C(=O)O[C@@H]2/C=C(\C)CC/C=C(\C)CC[C@@H]12 [COSTUNOLIDE]
IC50 (RAW264.7): > 50 µM

COc1c2c3c(c(OC)c1OC)-c1cc4c(cc1C[C@@H]3N(C(C)=O)CC2)OCO4
IC50 (RAW264.7): > 50 µM

CC(=O)N1CCc2cc3c(c4c2[C@H]1Cc1ccccc1-4)OCO3
IC50 (RAW264.7): > 50 µM

COc1cc2c3c(c1OC)-c1ccccc1C[C@H]3N(C(C)=O)CC2
IC50 (RAW264.7): > 50 µM

COc1cc2c(cc1OC)-c1c(OC)c(OC)cc3ccnc(c13)C2=O [OXOGLAUCINE]
IC50 (RAW264.7): > 50 µM

CNC(=N)NCCC[C@H](N)C(=O)O [TILARGININE]
IC50 (RAW264.7): 35.5 µM

COc1cc(O)c2c(c1)O[C@H](c1ccc(O)cc1)CC2=O [SAKURANETIN]
IC50 (RAW264.7): 21.6 µM | IC50 [1]: 15.5 µM

C=C1C(=O)O[C@@H]2/C=C(\C)CC/C=C(\C)C[C@@H](OC(C)=O)[C@@H]12
IC50 (RAW264.7): 19.8 µM

C=C[C@]1(C)C[C@H](O)[C@H]2C(=C)C(=O)O[C@@H]2[C@H]1C(=C)C
IC50 (RAW264.7): 12 µM | IC50 [1]: 14.1 µM

COc1cc([C@H]2Oc3c(OC)cc(CCCO)cc3[C@@H]2CO)ccc1O [DIHYDRODEHYDRODICONIFERY ALCOHOL]
IC50 (RAW264.7): > 50 µM

COc1c2c(c3c4c(nccc14)C(=O)c1ccccc1-3)OCO2
IC50 (RAW264.7): > 50 µM

COc1cc(/C=C/C(=O)NCCc2ccc(O)cc2)ccc1O [N-TRANS-FERULOYL TYRAMINE]
IC50 (RAW264.7): > 50 µM

CCCCC/C=C\CCC(=O)NCCc1ccccc1
IC50 (RAW264.7): > 50 µM

O=C(NCCc1ccccc1)c1ccccc1
IC50 (RAW264.7): > 50 µM

C=CCc1cc(OC)c(O[C@H](C)Cc2cc(OC)c3c(c2)OCO3)c(OC)c1
IC50 (RAW264.7): > 50 µM

C=CCc1cc(OC)c(OC(C)Cc2cc(OC)c(OC)c(OC)c2)c(OC)c1 (racemic)
IC50 (RAW264.7): > 50 µM
